Experimental data as given in patent US20120165319A1, “INHIBITORS OF INTERLEUKIN-1 BETA CONVERTING ENZYME” (VERTEX PHARMACEUTICALS INCORPORATED, priority 1995, published 2012).
pKi: −log10 of the molar value. Where “and” joins values, the source holds several entries; their conditions need not be identical. Equal entries are not always repeated. Where two headings read alike, the source gives them in different places.

Assays:
[1] = system: IL-1β production, LPS-challenged mice; test: In vivo acute assay for efficacy as anti-inflammatory agent: LPS-induced IL-1β production in mice; parameters: species or system mouse; settings: LPS challenged mice, 50 mg/kg; for inhibition at 50 mg/kg: Mus musculus, po, compound PO, read-out: percent inhibition of IL-1β production; for Inhibition of IL-1β Production, compound administered 0 hr relative to LPS challenge / Inhibition of IL-1β Production, compound administered +1 hr relative to LPS challenge / Inhibition of IL-1β Production, compound administered −1 hr relative to LPS challenge / Inhibition of IL-1β Production, compound administered −2 hr relative to LPS challenge: PO, * = values obtained in subsequent assays (Table 4)
Summary of the method: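 CD1 mice (n=6) were challenged with LPS 20 mg/kg IP and given compound IP in olive oil:DMSO:ethanol (90:5:5) 1 h after LPS, or at the time of challenge for some analogs. Blood was taken 7 h after LPS and serum IL-1β was measured by ELISA. Oral gavage at 50 mg/kg was also tested.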

ICE = biological target: T1, ICE (Homo sapiens, UniProt P29466); test: Enzyme assay with UV-visible substrate (visible ICE assay, Succinyl-Tyr-Val-Ala-Asp-pNitroanilide); type: biochemical
T1 sequence (P29466 120-297 limits assumed): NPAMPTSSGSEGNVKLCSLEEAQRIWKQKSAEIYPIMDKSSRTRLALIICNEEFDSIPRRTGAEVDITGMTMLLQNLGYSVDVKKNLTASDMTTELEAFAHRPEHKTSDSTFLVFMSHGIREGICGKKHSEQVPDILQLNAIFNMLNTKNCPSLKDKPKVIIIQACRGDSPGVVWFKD
T1 sequence (P29466 317-404 limits assumed): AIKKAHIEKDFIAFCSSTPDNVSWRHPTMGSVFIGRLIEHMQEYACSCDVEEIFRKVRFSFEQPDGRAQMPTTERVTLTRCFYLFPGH
Summary of the method: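 Buffer, ICE and inhibitor in DMSO are combined and held 15 min at room temperature. Succinyl-Tyr-Val-Ala-Asp-pNA is then added and absorbance at 405-603 nm tracked for 20 min at 37° C.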

[2] = In vivo rat clearance assay; settings: for clearance: plasma, iv, 10-20 mg/kg
Summary of the method: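 Rats cannulated a day beforehand received 10–20 mg/kg by intravenous jugular dosing in propylene glycol/saline with 100 mM sodium bicarbonate. Carotid blood was sampled from 0 to 90 min, and plasma was extracted with acetonitrile/0.1% TFA for HPLC quantification. Clearance from non-linear regression pharmacokinetic analysis.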

[3] = 0 h, administered 0 h relative to time of LPS challenge
[4] = 1 h, administered +1 h relative to time of LPS challenge
[5] = 1 h, administered −1 h relative to time of LPS challenge
[6] = 2 h, administered −2 h relative to time of LPS challenge

Structure (SMILES)	inhibition at 50 mg/kg [1, 3] [%]	inhibition at 50 mg/kg [1, 4] [%]	inhibition at 50 mg/kg [1, 5] [%]	inhibition at 50 mg/kg [1, 6] [%]	pKi (ICE; Table 17)	Inhibition of IL-1β Production, compound administered 0 hr relative to LPS challenge [1]	Inhibition of IL-1β Production, compound administered +1 hr relative to LPS challenge [1]	Inhibition of IL-1β Production, compound administered −1 hr relative to LPS challenge [1]	Inhibition of IL-1β Production, compound administered −2 hr relative to LPS challenge [1]	pKi (ICE; Table 5)	Clearance Rat, i.v. ([2]; Table 18) [mL/min/kg]	clearance [2] [mL/min/kg]
O=C1C[C@H](NC(=O)[C@@H]2CCCN3C(=O)CC[C@H](NC(=O)c4ccccc4)C(=O)N23)C(OCCc2ccccc2)O1 (mixture of isomers) [Compound 2100k, [1S,9S(2RS,3S)]9-Benzoylamino-6,10-dioxo-1,2,3,4,7,8,9,10-octahydro-N-(2-phenethyloxy-5-oxotetrahydrofuran-3-yl)-6H-pyridazino[1,2-a][1,2]diazepine-1-carboxamide]	32	72	50	30	6.28	–	–	–	–	–	–	–
CC(C)OC(=O)C[C@H](NC(=O)[C@@H]1CCCN2C(=O)CC[C@H](NC(=O)c3ccccc3)C(=O)N12)C(OC(C)C)OC(C)C [Compound 2100d]	–	–	–	–	–	52%	26%	35%	42%	< 4.00	–	–
COC(=O)C[C@H](NC(=O)[C@@H]1CCCN2C(=O)CC[C@H](NC(=O)c3ccccc3)C(=O)N12)C(OC)OC [Compound 2100c]	–	–	–	–	–	85%	40%	0%	0%	5.13	–	–
O=C1C[C@H](NC(=O)[C@@H]2CCCN3C(=O)CC[C@H](NC(=O)c4ccccc4)C(=O)N23)C(OCc2ccccc2)O1 (stereo partly drawn) [Compound 213e, [1S,9S(2RS,3S)]9-Benzoylamino-6,10-dioxo-1,2,3,4,7,8,9,10-octahydro-N-(2-benzyloxy-5-oxotetrahydrofuran-3-yl)-6H-pyridazino[1,2-a][1,2]-diazepine-1-carboxamide]	–	–	–	–	–	41%	89%	48%	0%	6.89	–	–
CC(C)(C)OC(=O)C[C@@H](C=O)NC(=O)[C@@H]1CCCN2C(=O)CC[C@H](NC(=O)c3ccccc3)C(=O)N12 [Compound 302, [3S(1S,9S)3-(9-Benzoylamino-6,10-dioxo-1,2,3,4,7,8,9,10-octahydro-6H-pyriazino-[1,2-a][1,2]diazapine-1-carboxamido)-amino]-4-oxobutanoic acid tert-butyl ester]	–	–	–	–	–	21%	26%	27%	0%	5.35	–	–
CS(=O)(=O)N[C@H]1CCC(=O)N2CCC[C@@H](C(=O)N[C@@H](CC(=O)O)C(=O)COC(=O)c3cccc4ccccc34)N2C1=O [Compound 286, [3S(1S,9S)]3-(6,10-Dioxo-9-methanesulphonylamino-1,2,3,4,7,8,9,10-octahydro-6H-pyridazino[1,2-a][1,2]diazepine-1-carboxamido)-5-(1-naphthoyloxy)-4-oxopentanoic acid]	–	–	–	–	–	–	–	–	–	–	119	–
CCOC(=O)C[C@H](NC(=O)[C@@H]1CCCN2C(=O)CC[C@H](NC(=O)c3ccccc3)C(=O)N12)C(OCC)OCC [Compound 2100b]	–	–	–	–	–	47%	26%	0%	0%	5.10	–	–
O=C1C[C@H](NC(=O)[C@@H]2CCCN3C(=O)CC[C@H](NC(=O)C(=O)c4ccccc4)C(=O)N23)C(OCc2ccccc2)O1 (stereo partly drawn) [Compound 2001, [1S,9S(2RS,3S)]9-Benzoylformylamino-6,10-dioxo-1,2,3,4,7,8,9,10-octahydro-N-(2(R,S)-benzyloxy-5-oxotetrahydrofuran-3-yl)-6H-pyridazino[1,2-a][1,2]-diazepine-1-carboxamide]	58	55	62	64	–	~57% and 58* %	~54% and 55* %	~62% and 62* %	~63% and 64* %	6.87	–	–
CCOC1OC(=O)C[C@@H]1NC(=O)[C@@H]1CCCN2C(=O)CC[C@H](NC(=O)c3ccccc3)C(=O)N12 (stereo partly drawn) [Compound 2100e, [1S,9S(2RS,3S)]9-Benzoylamino-6,10-dioxo-1,2,3,4,7,8,9,10-octahydro-N-(2-ethoxy-5-oxo-tetrahydro-furan-3-yl)-6H-pyridazino[1,2-a][1,2]-diazepine-1-carboxamide]	–	–	–	–	–	94%	66%	54%	49%	6.60	–	–
O=C(O)C[C@H](NC(=O)[C@@H]1CCCN2C(=O)CC[C@H](NC(=O)c3ccccc3)C(=O)N12)C(=O)CSc1nnnn1-c1ccccc1 [Compound 280, [3S(1S,9S)]3-(9-Benzoylamino-6,10-dioxo-1,2,3,4,7,8,9,10-octahydro-6H-pyridazino[1,2-a][1,2]diazepine-1-carboxamido)-4-oxo-5(1-phenyl-1H-tetrazole-5-thio)pentanoic acid]	–	–	–	–	–	–	–	–	–	–	–	187
O=C(O)C[C@H](NC(=O)[C@@H]1CCCN2C(=O)CC[C@H](NC(=O)c3ccccc3)C(=O)N12)C(=O)COc1cccnc1 [Compound 283, [3S(1S,9S)]3-[9-Benzoylamino-6,10-dioxo-1,2,3,4,7,8,9,10-octahydro-6H-pyridazino[1,2-a][1,2]diazepine-1-carboxamido]-4-oxo-5-(3-pyridyloxy)pentanoic acid]	–	–	–	–	–	–	–	–	–	–	–	104
CC(C)OC1OC(=O)C[C@@H]1NC(=O)[C@@H]1CCCN2C(=O)CC[C@H](NC(=O)c3ccccc3)C(=O)N12 (stereo partly drawn) [Compound 2100a, [1S,9S(2RS,3S)]9-Benzoylamino-6,10-dioxo-1,2,3,4,7,8,9,10-octahydro-N-(2-isopropoxy-5-oxo-tetrahydro-furan-3-yl)-6H-pyridazino-[1,2-a][1,2]diazepine-1-carboxamide]	–	–	–	–	–	67%	58%	71%	8%	7.00	–	–
